What was measured:
[1] = biological target: T1, PPARα (Homo sapiens, UniProt Q07869); assay: Hela cell/luciferase reporter gene method, PPARα agonist activity; assay type: cell-based; conditions: for EC50: Hela cells, pPPRE3-TK-Luciferase reporter, 24 hrs incubation, read-out: agonistic activity on PPAα (EC50); for ratio of PPARγ/PPARα activated (EC50 ratio): under the experimental conditions of the present disclosure
T1 construct: expressed in transfected cells; host or cells: Hela cells
T1 sequence (Q07869 1-468): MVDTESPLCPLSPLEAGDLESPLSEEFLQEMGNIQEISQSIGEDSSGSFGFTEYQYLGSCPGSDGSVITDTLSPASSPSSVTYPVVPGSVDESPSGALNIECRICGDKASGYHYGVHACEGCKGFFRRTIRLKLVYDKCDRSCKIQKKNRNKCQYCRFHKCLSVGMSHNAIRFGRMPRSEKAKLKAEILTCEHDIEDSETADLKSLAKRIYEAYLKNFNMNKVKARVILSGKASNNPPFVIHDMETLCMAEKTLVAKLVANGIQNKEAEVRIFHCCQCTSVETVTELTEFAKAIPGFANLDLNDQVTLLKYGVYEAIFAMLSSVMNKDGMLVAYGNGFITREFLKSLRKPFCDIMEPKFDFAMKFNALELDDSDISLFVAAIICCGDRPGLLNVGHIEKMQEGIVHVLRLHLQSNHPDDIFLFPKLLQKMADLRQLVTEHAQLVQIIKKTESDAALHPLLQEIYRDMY
Description: This example measures the biological activity of a PPAR agonist using the Hela cell/luciferase reporter gene method.
The target plasmids PCMV PPARα (Ampicillin+), PCMV PPARγ (Ampicillin+), PCMV PPARδ (Ampicillin+), and pPPRE3-TK-Luciferase (Ampicillin+) were introduced into DH5a competent cells by heat shock treatment, respectively. After being incubated for 1 hour at 37° C. with shaking (180 rpm), the cells were inoculated on LB agar solid medium containing antibiotic Ampicillin, and invertedly cultured at 37° C. for 12-16 hours. Then the monoclonal colony cultured on the medium was taken and inoculated into LB liquid medium for expanded culture. The desired plasmid was extracted from the resulting bacterial solution with a Plasmid Midi Kit (Qiagen; #12143). The plasmid obtained by centrifugation was suspended in TE buffer, and the plasmid concentration was measured and the mixture was stored at −20° C. Hela cells in the exponential phase were seeded in 6-well plates (8-10^5 cells/well), and after 6-8 hours of culture, the cells were transfected using Lipofectamine® 3000 Transfection Reagent (Invitrogen; #L3000015). A plasmid containing a PPAR binding site (peroxisome proliferator response element, PPRE) and a firefly luciferase gene (pPPRE3-TK-Luciferase) and PPAR expression vector were co-transfected into a Hela cell with a total amount of plasmid DNA of 2.5 ug (the mass ratio of each PPAR expression vector is pPPRE:PPARα=6:1, pPPRE:PPARδ=8:1, and pPPRE:PPARγ=2:1) to construct a drug screening cell model for PPAR agonists. PPAR was binded to the ligand and then binded to the peroxisome proliferator response element (PPRE), thereby initiating downstream firefly luciferase expression and its expression intensity was directly proportional to the degree of PPAR activation. The cells after 24 hours transfection were prepared into a cell suspension with a cell concentration of […] by a complete culture solution, and seeded into a 96-well plate with 100 ul per well. After overnight culture, the medium was changed to a medium containing 1% FBS. 10 mM candidate compound stock (1000×) were 4-fold diluted in DMSO for 8 points, then supplemented with medium containing 1% FBS to a final concentration of 50 uM (5×) by addition of 25 μl of 5× compound diluent to each well in different concentration gradients and incubated under 37° C., 5% CO2 incubator for 24 hrs. The 96-well plate was taken out and 30 μl of Bright-Glo™ Luciferase Assay System (Promega #E2620) was added to each well. The Luciferase luminescence intensity was measured by a SynergyH1 full-function microplate detector. The obtained data was used to calculate EC50 using GraphPad Prism 5.0 software to determine the biological activity of the compound.
The agonistic activity of the compounds synthesized in Examples 1-41 on PPAR is represented by EC50 (see Table 1). EC50 refers to the drug concentration at which the compound has a 50% increase in the agonistic activity of the measured PPAR. The compound numbers in Table 1 correspond to the compound numbers in Examples 1-41.

[2] = Pharmacokinetic (PK) experiments after intragastric administration in rats; assay type: in vivo, SD rats; conditions: for AUC(0-inf) / AUC(0-t) / Cmax / Tmax / half-life: male, SD, rat, plasma, po, intragastric administration 20 mg/kg; for half-life: read-out: Terminal T1/2 (converted)
Description: Male SD rats, weighing 250-300 grams, were fasted overnight before testing. The test compound was dissolved in 30% sulfobutyl-R-cyclodextrin (SBE-β-CD) and administered intragastrically at a dose of 20 mg/kg. Blood was collected 15 minutes, 30 minutes, and 1, 2, 3, 4, […] and 24 hours after the administration. About 0.3 ml of blood was collected at each time point, placed in a centrifuge tube containing K2-EDTA (dipotassium ethylenediamine tetraacetate) and centrifuged (2,000 g, 10 minutes, 4° C.) to take the plasma, which was stored in an ultra-low temperature refrigerator at −80° C. A 50 μL plasma sample was mixed with 5 μl of internal standard (IS) and extracted with ethyl acetate. The residue was redissolved in acetonitrile after drying under vacuum. The sample was filtered and injected into an LC-MS/MS for analysis.

SMILES	EC50 [1] [nM]	AUC(0-inf) [2] [ng·h/mL]	AUC(0-t) [2] [ng·h/mL]	Cmax [2] [ng/mL]	Tmax [2] [h]	half-life [2] [h]	absorption after oral administration compared with Elafibranor (in words) [2]	blood exposure after oral administration compared with Elafibranor (in words) [2]	half-life after oral administration compared with Elafibranor (in words) [2]	ratio of PPARγ/PPARα activated (EC50 ratio) [1]	increased activity for activation of PPARα compared with Elafibranor ([1]; compared with Elafibranor) [fold]
CCSc1ccc2c(C)c(C(=O)/C=C/c3cc(C)c(OC(C)(C)C(=O)O)c(C)c3)oc2c1 [Compound 74, (E)-2-(4-(3-(6-(ethylthio)-3-methylbenzofuran-2-yl)-3-oxoprop-1-en-1-yl)-2,6-dimethylphenoxy)-2-methylpropanoic acid]	13.9	–	–	–	–	–	–	–	–	–	–
CSc1ccc2cc(C(=O)/C=C/c3cc(Cl)c(OC(C)(C)C(=O)O)c(Cl)c3)oc2c1 [Compound 100, (E)-2-(2,6-dichloro-4-(3-(6-(methylthio)benzofuran-2-yl)-3-oxoprop-1-en-1-yl)phenoxy)-2-methylpropanoic acid]	2	14000	13800	7730	0.25	4.41	good absorption	highly effective blood exposure	significantly prolonged half-life	237.55	–
Cc1cc(/C=C/C(=O)c2ccc3c(c2)CCS3)cc(C)c1OC(C)(C)C(=O)O [Compound 36, (E)-2-(4-(3-(2,3-dihydrobenzo[b]thiophen-5-yl)-3-oxoprop-1-en-1-yl)-2,6-dimethylphenoxy)-2-methylpropanoic acid]	75.1	3380	3340	2740	0.38	6.42	good absorption	highly effective blood exposure	significantly prolonged half-life	–	–
CSc1ccc2c(C)c(C(=O)/C=C/c3cc(Cl)c(OC(C)(C)C(=O)O)c(Cl)c3)oc2c1 [Compound 103, (E)-2-(2,6-dichloro-4-(3-(3-methyl-6-(methylthio)benzofuran-2-yl)-3-oxoprop-1-en-1-yl)phenoxy)-2-methylpropanoic acid]	8.7	50900	50400	5030	4.08	3.28	good absorption	highly effective blood exposure	significantly prolonged half-life	90.59	–
CSc1ccc(C(=O)/C=C/c2cc(C)c(OC(C)(C)C(=O)O)c(C)c2)c2occc12 [Compound 5, (E)-2-(2,6-dimethyl-4-(3-(4-(methylthio)benzofuran-7-yl)-3-oxoprop-1-en-1-yl)phenoxy)-2-methylpropanoic acid]	24.4	3240	3110	2850	0.25	12.3	good absorption	highly effective blood exposure	significantly prolonged half-life	–	–
CCSc1ccc(C(=O)/C=C/c2cc(C)c(OC(C)(C)C(=O)O)c(C)c2)c2occc12 [Compound 6, (E)-2-(4-(3-(4-(ethylthio)benzofuran-7-yl)-3-oxoprop-1-en-1-yl)-2,6-dimethylphenoxy)-2-methylpropanoic acid]	9.6	–	–	–	–	–	–	–	–	–	–

More lines, now with the values ahead:

EC50 [1] [nM]	AUC(0-inf) [2] [ng·h/mL]	AUC(0-t) [2] [ng·h/mL]	Cmax [2] [ng/mL]	Tmax [2] [h]	half-life [2] [h]	absorption after oral administration compared with Elafibranor (in words) [2]	blood exposure after oral administration compared with Elafibranor (in words) [2]	half-life after oral administration compared with Elafibranor (in words) [2]	ratio of PPARγ/PPARα activated (EC50 ratio) [1]	increased activity for activation of PPARα compared with Elafibranor ([1]; compared with Elafibranor) [fold]	SMILES
24.9	811	806	302	0.25	3.35	good absorption	highly effective blood exposure	significantly prolonged half-life	–	–	CSc1ccc2cc(C(=O)/C=C/c3cc(C)c(OC(C)(C)C(=O)O)c(C)c3)sc2c1 [Compound 81, (E)-2-(2,6-dimethyl-4-(3-(6-(methylthio)benzo[b]thiophen-2-yl)-3-oxoprop-1-en-1-yl)phenoxy)-2-methylpropanoic acid]
19.2	1720	1700	812	0.25	4.3	good absorption	highly effective blood exposure	significantly prolonged half-life	–	–	CCc1c(C(=O)/C=C/c2cc(C)c(OC(C)(C)C(=O)O)c(C)c2)oc2cc(SC)ccc12 [Compound 63, (E)-2-(4-(3-(3-ethyl-6-(methylthio)benzofuran-2-yl)-3-oxoprop-1-en-1-yl)-2,6-dimethylphenoxy)-2-methylpropanoic acid]
4	479	412	484	0.25	12.3	good absorption	highly effective blood exposure	significantly prolonged half-life	8.83	7	CSc1ccc2cc(C(=O)/C=C/c3cc(C)c(OC(C)(C)C(=O)O)c(C)c3)oc2c1 [Compound 51, (E)-2-(2,6-dimethyl-4-(3-(6-(methylthio)benzofuran-2-yl)-3-oxoprop-1-en-1-yl)phenoxy)-2-methylpropanoic acid]
59.1	–	–	–	–	–	–	–	–	–	–	CSc1ccc(C(=O)/C=C/c2cc(C)c(OC(C)(C)C(=O)O)c(C)c2)c2ccoc12 [Compound 27, (E)-2-(2,6-dimethyl-4-(3-(7-(methylthio)benzofuran-4-yl)-3-oxoprop-1-en-1-yl)phenoxy)-2-methylpropanoic acid]
46.7	–	–	–	–	–	–	–	–	–	–	CSc1cccc2oc(C(=O)/C=C/c3cc(C)c(OC(C)(C)C(=O)O)c(C)c3)cc12 [Compound 60, (E)-2-(2,6-dimethyl-4-(3-(4-(methylthio)benzofuran-2-yl)-3-oxoprop-1-en-1-yl)phenoxy)-2-methylpropanoic acid]

— US11306102B2, “1,3-di-substituted ketene compound and application thereof” (BEBETTER MED INC., priority 2017, dated 2022)
